Peptide text beside a SMILES is read from it. * marks the point of attachment. Cbz = O=C(OCc1ccccc1)*
Assays:
Format in all cases: cell-based
[1] = tested on: HCT116 p53+/+ cells; assay: JC-1 mitochondrial membrane potential, HCT116 p53+/+; conditions: 40 nM siRNA 24 h, then 1 μM CPT 24 h, FIG. 5j
Method: For the MTS assay, cells were incubated with CellTiter 96® AQueous Non-Radioactive Cell Proliferation Assay reagent (Promega, USA) for 1 h, and then the O.D. was measured at 490 nm. Apoptosis, DNA content, and mitochondrial membrane potential were determined by flow cytometry using annexin V-PE, propidium iodine, and JC-1 staining, as previous described [Shirangi et al., FASEB J. 16, 420-422 (2002)].
The present inventors investigated the negative role of Hades on p53-dependent apoptosis additionaly using FACS analysis. MCF7 cells were transfected with pSuper or pSuper-Hades, treated with 1 μM CPT for 24 h, and analyzed by FACS to measure the sub-GO fraction. As a result, CPT treatment was higher in Hades knockdown MCF7 cells than in control cells (FIG. 5i). Further, HCT116 p53+/+ and HCT116 p53−/− cells were transfected with 40 nM Hades siRNA or control siRNA. After incubation for 24 h, cells were further treated with 1 μM CPT for 24 h. Cells were harvested and stained with JC-1 for 30 min.

[2] = tested on: p53; assay: Bax-luc / Puma-luc luciferase reporter assay; conditions: H1299, LMB 20 nM 4 h, FIG. 4b
Method: Aliquots of 5×10^4 cells were plated in 24-well plates. The following was added to each well: 500 ng of pGL plasmid containing the promoter p53 binding site for Bax or Puma, 100 ng of p53 plasmid, and 200 ng of Hades or Hades MT plasmid. At 48 h after transfection, cells were harvested and cell extracts were prepared by addition of 50 μl Passive lysis buffer (Promega). Luciferase activities were measured using a Biotek synergy HT microplate reader. The relative luciferase activities were normalized by mesuring β-galactosidase activities using Luminescent β-galactosidase detection kit II (Takara-Clontech).
Since E3 ligase activities necessary for p53 ubiquitination can also regulate p53 function [Dornan et al., Nature 429, 86-92 (2004); Leng et al., Cell 112, 779-791 (2003)], we explored the effect of Hades on p53-dependent growth suppression and apoptosis. First, we examined whether Hades affects p53-mediated transcriptional activation using a luciferase reporter assay (FIG. 4a). H1299 cells were cotransfected with expression plasmids for p53 and GFP, GFP-Hades, or GFP-Hades MT, together with Bax-luc or Puma-luc reporter plasmid. At 24 h after transfection, the relative luciferase activities were measured by luminometer. […] At 24 h after transfection, luciperase activation and p53 experssion were measured.

[3] = biological target: Crm1 (Homo sapiens, UniProt O14980); assay: p53 level in Hades-transfected H1299 cells with leptomycin B; conditions: H1299 transfected with p53 and GFP-Hades, FIG. 2i
Chain of Crm1 (O14980 whole entry): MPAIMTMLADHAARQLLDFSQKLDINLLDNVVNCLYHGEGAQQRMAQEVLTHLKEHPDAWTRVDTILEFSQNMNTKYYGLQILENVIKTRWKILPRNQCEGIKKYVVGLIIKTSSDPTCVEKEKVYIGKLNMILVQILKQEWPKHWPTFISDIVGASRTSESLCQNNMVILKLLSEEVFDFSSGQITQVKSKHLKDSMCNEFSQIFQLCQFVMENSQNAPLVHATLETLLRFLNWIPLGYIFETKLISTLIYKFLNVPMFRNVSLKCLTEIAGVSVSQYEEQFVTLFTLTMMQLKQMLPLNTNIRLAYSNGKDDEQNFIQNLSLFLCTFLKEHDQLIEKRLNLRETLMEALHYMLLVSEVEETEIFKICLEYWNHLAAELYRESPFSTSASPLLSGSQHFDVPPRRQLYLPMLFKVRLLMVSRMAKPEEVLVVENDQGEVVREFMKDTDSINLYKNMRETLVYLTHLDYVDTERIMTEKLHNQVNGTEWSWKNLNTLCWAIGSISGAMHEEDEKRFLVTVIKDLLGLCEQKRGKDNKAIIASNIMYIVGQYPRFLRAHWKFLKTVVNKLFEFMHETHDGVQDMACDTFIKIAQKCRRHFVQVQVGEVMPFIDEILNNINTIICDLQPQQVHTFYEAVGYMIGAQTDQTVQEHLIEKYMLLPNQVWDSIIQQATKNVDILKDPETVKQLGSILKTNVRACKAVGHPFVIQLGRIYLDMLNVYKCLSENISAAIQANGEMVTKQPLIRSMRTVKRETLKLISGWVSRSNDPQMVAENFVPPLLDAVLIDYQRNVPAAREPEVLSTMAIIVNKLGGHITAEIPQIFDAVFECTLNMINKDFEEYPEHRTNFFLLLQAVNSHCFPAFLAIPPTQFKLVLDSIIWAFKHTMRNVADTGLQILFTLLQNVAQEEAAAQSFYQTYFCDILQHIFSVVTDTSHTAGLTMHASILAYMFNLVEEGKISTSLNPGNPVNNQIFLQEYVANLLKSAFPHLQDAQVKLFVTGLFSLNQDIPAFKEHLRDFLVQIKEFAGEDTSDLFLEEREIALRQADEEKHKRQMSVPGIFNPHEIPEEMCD
Method: Next, we monitored the localization of p53 after the knockdown of Hades. […] The levels of endogenous p53 were measured in fractionated extracts of stable MCF7 cells. […] And also, we used a p53 expression plasmid encoding a mutant p53 (C153Y) that is localized mainly to the cytoplasm but not in the nucleus [Nie et al., J Biol Chem. 282, 14616-14625 (2007)]. We performed immunoblotting assay of ectopically expressed wild-type or mutant p53(C135Y). […] At 24 h after transfection, ectopically expressed wild-type p53 and mutant p53 levels were measured by immunoblotting.

[4] = tested on: p53; assay: p53 accumulation in CPT-treated MCF7 cells (immunoblotting)
Method: In a prior research, as p53 is rapidly translocated to mitochondria upon camptothecin (CPT) treatment for its exonuclear function [Mihara et al., Molecular Cell 11, 577-590 (2003)]. We examined whether Hades would be able to weaken the exonuclear function of p53 upon CPT treatment. MCF7 cells were transfected with plasmids (1 μg) expressing GFP or GFP-Hades. At 24 h post-transfection, cells were treated with CPT (1 μM) for 6 h. Accumulation of p53 upon CPT treatment was attenuated by Hades expression (FIG. 5e, upper panel). MCF7 cells were transfected with expression plasmid for GFP or GFP-Hades RING MR. At 24 h after transfection, cells were treated with CPT [5 μM] for 6 h and their nuclear and cytoplasmic fractions were collected to measure the expression level of p53. […] Further, MCF7 cells were transfected with the expression plasmids for GFP or GFP-Hades MR. At 24 h after transfection, cells were treated with 1 μM CPT for 24 h. Cells were harvested, lysed and immunoprecipitated with anti-p53 antibody. […] Hades inhibits the interaction between p53 and Bcl-2 in CPT-treated cells. (FIG. 5f) In order to confirm the effect of Hades on CPT-induced apoptosis, MCF7 cells were transfected with plasmids expressing GFP or GFP-Hades. At 24 h post-transfection, cells were treated with CPT (1 μM) for 24 h.

[5] = tested on: p53; assay: In vivo p53 ubiquitination assay in H1299 cells; conditions: H1299 cotransfected with p53 and GFP-Hades, MG132 10 μM 4 h, FIG. 3e
Method: For in vivo p53 ubiquitination assay, HCT116 p53^−/− or H1299 cells were transfected with GFP, GFP-Hades, or GFP-Hades RING MT. At 48 hr after transfection, cells were treated with 10 μM MG132 for 4 hr. The ubiquitinated lysates were analyzed by immunoprecipitation using anti-p53 antibody followed by immunoblotting using anti-Ubiquitin antibody. In vivo p53 ubiquitination analysis, HCT116 p53^−/− or H1299 cells were transformed with GFP, GFP-Hades or GFP-Hades RING MT for 48 hr. After the transformation, cells were incubated for 4 hr using 10 μM MG132. Then, cells were lysed using SDS-containing lysis buffer and heated for […]. […] The anti-p53 immunoprecipitate was analyzed by immunoblotting using anti-polyubiquitin antibody.
Since there are several E2 conjugating enzymes which participate in the ubiquitin-mediated degradation [Smalle et al., Annu Rev Plant Biol. 2004, 555-590 (2004)], we examined which E2 enzyme is responsible for the ubiquitination of p53 by Hades. […] After in vitro ubiquitination, samples were examined SDS-PAGE and detected using autoradiography. […] Moreover, in vitro translated ^35S-labeled p53 was incubated with GST, GST-Hades RP or GST-Mdm2 in the presence of ATP, His-tagged ubiquitin E1 and E2(UbcHSc). p53 ubiquitination was assessed by immunoblotting using anti-p53 antibody. […] The p53 ubiquitination was assessed by immunoblotting using anti-p53 antibody. […]

[6] = tested on: p53; assay: p53 level in Hades-transfected H1299 cells with MG132; conditions: H1299, 10 μM MG132 4 h, FIG. 2e
Method: To gain a more detailed insight into the function of Hades in p53 downregulation, we investigated the regulation of p53 stability by Hades. H1299 cells were transfected with each indicated plasmid for 24 h and untreated or treated with 10 μM MG132 for 4 h. The reduced level of p53 by Hades was recovered by treatment of MG132 (FIG. 2e). To generate of stable Hades-knockdown MCF7 cells using the shRNA, the cells were transfected with pSuper-Hades 1 or 2. After selection for 14 days in media containing G418 (500 μg/ml), hades mRNA levels were measured by RT-PCR and the levels of endogenous Hades and p53 proteins were measured by immunoblotting. […] Furthermore, Stable Hades-knockdown MCF7 cells using Hades shRNA were incubated with cycloheximide (CHX, 150 μg/ml). The half-life of p53 protein was greater in pSuper-Hades transfected cells (lower panel) than in control (upper panel) (FIG. 2g).

Hades siRNA: siRNAs for Hades from Ambion, GGGAUUUUUAUCUCGAGGC and CGUGUGUGUAGAGGACAAA; antisense SEQ ID NO: 4 and 5 (antisense 1 GCCUCGAGAUAAAAAUCCCTG; antisense 2 UUUGUCCUCUACACACACGTG; sense strands lack entries, further chemistry not given here)
loss of mitochondrial membrane potential (JC-1) [1]: only detectable in HCT116 p53+/+ cells

CCC(=C/[C@H](C)C/C=C/C(C)=C/[C@@H](C)C(=O)[C@@H](C)[C@H](O)[C@@H](C)C/C(C)=C/C(=O)O)/C=C/[C@@H]1OC(=O)C=C[C@@H]1C [LMB, Leptomycin B]
p53 transcriptional activity (relative luciferase activity) [2]: not reduced by Hades in the presence of LMB
level of p53 reduced by Hades [3]: restored the level of p53

CC[C@@]1(O)C(=O)OCc2c1cc1n(c2=O)Cc2cc3ccccc3nc2-1 [CPT, Camptothecin]
expression level of p53 ([4]; MCF7, 1 μM CPT 24 h, FIG. 5f): accumulation of p53 expression was observed
expression level of p53 in nuclear and cytoplasmic fractions ([4]; MCF7, CPT 5 μM 6 h, FIG. 5e lower panel): accumulated in nucleus and cytoplasm

CC(C)C[C@@H](C=O)NC(=O)[C@H](CC(C)C)NC(=O)[C@H](CC(C)C)NC(=O)OCc1ccccc1 [MG132] (Cbz-Leu-Leu-Leu-aldehyde)
polyubiquitinated p53 [5]: only detected in Hades-transfected cells treated with MG132
level of p53 reduced by Hades [6]: recovered

Source: US20130157959A1, “USE OF HADES AS TUMOR SUPPRESSOR TARGET” (KONKUK UNIVERSITY INDUSTRIAL COOPERATION CORP, priority 2010, published 2013)
